Here are results for 23 molecules from ChEMBL document CHEMBL3758094, “Thioxocoumarins Show an Alternative Carbonic Anhydrase Inhibition Mechanism Compared to Coumarins” (J Med Chem, 2016).

As a reminder, the Ki is the equilibrium dissociation constant of an inhibitor or competing ligand from its target.

For one experiment, the target named is Carbonic anhydrase 2 (Homo sapiens, UniProt P00918). The experiment can be described thus: Inhibition of human carbonic anhydrase 2 by Stopped-Flow CO2 Hydrase assay.
The next experiment addresses Carbonic anhydrase 9 (Homo sapiens, UniProt Q16790).
The target of the next experiment is Carbonic anhydrase 1 (Homo sapiens, UniProt P00915). The experiment can be described thus: Inhibition of human carbonic anhydrase 1 by Stopped-Flow CO2 Hydrase assay.
Another experiment deals with Carbonic anhydrase 12 (Homo sapiens, UniProt O43570).
Carbonic anhydrase 12, sequence (O43570 whole entry): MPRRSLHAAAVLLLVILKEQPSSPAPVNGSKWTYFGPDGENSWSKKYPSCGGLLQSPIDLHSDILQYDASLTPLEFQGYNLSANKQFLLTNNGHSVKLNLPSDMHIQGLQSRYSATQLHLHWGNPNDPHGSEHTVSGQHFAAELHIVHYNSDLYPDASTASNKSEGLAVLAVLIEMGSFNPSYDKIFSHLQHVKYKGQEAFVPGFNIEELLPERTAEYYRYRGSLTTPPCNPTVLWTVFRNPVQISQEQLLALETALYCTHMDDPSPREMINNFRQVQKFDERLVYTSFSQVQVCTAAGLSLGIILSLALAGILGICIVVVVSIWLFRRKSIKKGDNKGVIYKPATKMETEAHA

Carbonic anhydrase 1, sequence (P00915 whole entry): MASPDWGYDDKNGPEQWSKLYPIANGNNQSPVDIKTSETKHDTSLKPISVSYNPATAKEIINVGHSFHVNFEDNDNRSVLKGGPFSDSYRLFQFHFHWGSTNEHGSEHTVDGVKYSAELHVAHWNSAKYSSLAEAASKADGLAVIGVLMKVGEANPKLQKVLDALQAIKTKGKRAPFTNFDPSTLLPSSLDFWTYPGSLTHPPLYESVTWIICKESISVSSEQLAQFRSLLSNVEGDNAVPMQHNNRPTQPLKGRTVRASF

Molecule `C=CCOc1cc(=S)oc2ccccc12` gave a Ki on Carbonic anhydrase 2 of over 100 µM.

In turn, `CC(C)(C)[Si](C)(C)Oc1ccc2ccc(=S)oc2c1` gave a Ki at Carbonic anhydrase 2 of over 100 µM.

For the molecule `CC(C)(C)[Si](C)(C)Oc1ccc2ccc(=O)oc2c1`, at Carbonic anhydrase 2, the Ki is over 100 µM.

Consider `O=c1ccc2ccc(OCc3cn(-c4ccccc4)nn3)cc2o1`, for which the Ki on Carbonic anhydrase 9 was 0.008 µM; on Carbonic anhydrase 1 it was over 200 µM; at Carbonic anhydrase 2, over 100 µM.

With `O=c1ccc2ccccc2s1`, the Ki at Carbonic anhydrase 1 and on Carbonic anhydrase 2 was over 100 µM throughout.

Regarding `Oc1ccc2oc(=S)ccc2c1`, at Carbonic anhydrase 2, the affinity corresponds to a Ki of 285 µM.

In the case of `O=c1cc(O)c2ccccc2o1` [4-HYDROXYCOUMARINS], the Ki on Carbonic anhydrase 12 is 6.3 µM; at Carbonic anhydrase 9 it was 0.41 µM; at Carbonic anhydrase 1 it was 95 µM; on Carbonic anhydrase 2 it was over 100 µM.

`C=CCOc1ccc2oc(=S)ccc2c1` displayed a Ki at Carbonic anhydrase 2 of over 100 µM.

On Carbonic anhydrase 2, `CC(C)(C)[Si](C)(C)Oc1ccc2oc(=S)ccc2c1` showed a Ki of over 100 µM.

In the case of `S=c1ccc2ccc(OCc3cn(-c4ccccc4)nn3)cc2o1`, the results for the Ki at Carbonic anhydrase 9, on Carbonic anhydrase 1 and at Carbonic anhydrase 2 were 0.004 µM, over 200 µM and over 100 µM, respectively.

`C#CCOc1ccc2ccc(=S)oc2c1`: the values for the Ki at Carbonic anhydrase 9, on Carbonic anhydrase 1 and at Carbonic anhydrase 2 were 41.6 µM, 950 µM and over 100 µM, respectively.

On to `CC(C)(C)[Si](C)(C)Oc1ccc2oc(=O)ccc2c1`, for which, on Carbonic anhydrase 2, the Ki is over 100 µM.

On to `C=CCOc1ccc2oc(=O)ccc2c1`, for which the Ki on Carbonic anhydrase 2 is over 100 µM.

At Carbonic anhydrase 2, `Oc1ccc2ccc(=S)oc2c1` returned a Ki of over 100 µM.

On to `S=c1ccc2ccccc2o1`, for which the Ki was 6.7 µM at Carbonic anhydrase 9, over 100 µM on Carbonic anhydrase 1 and over 100 µM at Carbonic anhydrase 2.

As for `C#CCCCOc1ccc2ccc(=O)oc2c1`, the Ki at Carbonic anhydrase 12 was 0.37 µM; at Carbonic anhydrase 9 it was 0.83 µM; at Carbonic anhydrase 1, 124 µM; at Carbonic anhydrase 2, over 100 µM.

`C=CCOc1ccc2ccc(=O)oc2c1` [7-ALLYLOXYCOUMARIN] gave a Ki at Carbonic anhydrase 2 of over 100 µM.

Turning to `C#CCCCOc1ccc2ccc(=S)oc2c1`, the Ki on Carbonic anhydrase 9 is 0.22 µM; on Carbonic anhydrase 1, over 200 µM; at Carbonic anhydrase 2, over 100 µM.

Consider `C#CCOc1ccc2ccc(=O)oc2c1`, for which the Ki was 72 µM at Carbonic anhydrase 1 and over 100 µM at Carbonic anhydrase 2.

For the molecule `C=CCOc1cc(=O)oc2ccccc12`, the Ki at Carbonic anhydrase 2 is over 100 µM.

For `S=c1ccc2ccccc2s1`, the Ki on Carbonic anhydrase 1 and at Carbonic anhydrase 2 was over 100 µM in each case.

Consider `O=c1ccc2cc(O)ccc2o1` [6-HYDROXYCOUMARIN], for which the Ki at Carbonic anhydrase 12 was 0.68 µM; on Carbonic anhydrase 9 it was 0.19 µM; on Carbonic anhydrase 1 it was over 100 µM; at Carbonic anhydrase 2, over 100 µM.

As for `C=CCOc1ccc2ccc(=S)oc2c1`, the Ki on Carbonic anhydrase 2 was over 100 µM.
